Assay: Dynamic light scattering of nanoparticles
Format: physicochemical
Settings: self-assembled in aqueous solution
Experimental: The foregoing amphiphilic nonsteroid anti-inflammatory platinum is dissolved in DMF, dropped into an aqueous solution at room temperature, and the DMF is removed by dialysis to obtain an amphiphilic nonsteroid anti-inflammatory platinum nanoparticle solution. The dynamic light scattering results of the antitumor cisplatin-tonifamic acid nanoparticles prepared in this embodiment are shown in FIG. 3, and the means particle size of the nanoparticles is 157 nm.
CDDP (150 mg), AgNO3 (113 mg), tolfenamic acid (131 mg) and Na2CO3 (35.3 mg) are added to a round-bottom flask, then 10 ml of water is added and stirred at room temperature for 24 h in a dark place. The AgCl precipitate is centrifugally discarded, and the filtrate is dried in vacuum. The crude product is purified by silica gel column chromatography using an eluent of methanol:chloroform=1:9 to obtain the cisplatin-tolfenamic acid-based complex in a yield of 53%. The chemical structure of the complex synthesized in this embodiment is as shown in Formula 1. […]

Cc1c(Cl)cccc1[N]1c2ccccc2C(=O)[O][Pt]1([NH2])[NH2] [Embodiment 1, cisplatin-tolfenamic acid-based complex]
means particle size of the nanoparticles: 157 nm

Reference: patent publication US20190358345A1, “A[…]-IN[…] NANOPARTICLES AND PREPARATION METHODS THEREFOR” (CHINA PHARMACEUTICAL UNIVERSITY, priority 2017, published 2019)
